Key:
Experiment in all cases: radiometric filter-binding kinase assay
CDK2 CCNA2 (human) = CDK2 CCNA2 (human) (UniProt P20248+P24941)
FLT1 (human) = FLT1 (human) (UniProt P17948)
CSNK1D (human) = CSNK1D (human) (UniProt P48730)
MAPKAPK3 (human) = MAPKAPK3 (human) (UniProt Q16644)
TBK1 (human) = TBK1 (human) (UniProt Q9UHD2)
EPHB2 (human) = EPHB2 (human) (UniProt P29323)
[1] = test system: PAK2 (human), Q13177 [T402E]
MELK (human) = MELK (human) (UniProt Q14680)
[2] = test system: SGK1 (human), O00141 [S422D]
FGFR1 (human) = FGFR1 (human) (UniProt P11362)
RPS6KA3 KD1 KD2 (human) = RPS6KA3 KD1 KD2 (human) (UniProt P51812)
PLK1 (human) = PLK1 (human) (UniProt P53350)
PIM3 (human) = PIM3 (human) (UniProt Q86V86)
SYK (human) = SYK (human) (UniProt P43405)
MYLK (human) = MYLK (human) (UniProt Q15746)
MARK4 (human) = MARK4 (human) (UniProt Q96L34)
AURKA (human) = AURKA (human) (UniProt O14965)
MAP3K11 (human) = MAP3K11 (human) (UniProt Q16584)
JAK2 JH1 JH2 (human) = JAK2 JH1 JH2 (human) (UniProt O60674)
IRAK4 (human) = IRAK4 (human) (UniProt Q9NWZ3)
INSRR (human) = INSRR (human) (UniProt P14616)
MAPK8 (human) = MAPK8 (human) (UniProt P45983)
TTK (human) = TTK (human) (UniProt P33981)
INSR (human) = INSR (human) (UniProt P06213)
EPHA4 (human) = EPHA4 (human) (UniProt P54764)
MAPK12 (human) = MAPK12 (human) (UniProt P53778)
BRSK2 (human) = BRSK2 (human) (UniProt Q8IWQ3)
[3] = test system: RPS6KB1 (human), P23443 [T412E]
CLK2 (human) = CLK2 (human) (UniProt P49760)
RIPK2 (human) = RIPK2 (human) (UniProt O43353)
CSK (human) = CSK (human) (UniProt P41240)
PIM1 (human) = PIM1 (human) (UniProt P11309)
BRSK1 (human) = BRSK1 (human) (UniProt Q8TDC3)
MAP2K2 (human) = MAP2K2 (human) (UniProt P36507)
MAP3K7 TAB1 (human) = MAP3K7 TAB1 (human) (UniProt Q15750+O43318)

TBK1 (human), sequence (Q9UHD2 whole entry, looked up): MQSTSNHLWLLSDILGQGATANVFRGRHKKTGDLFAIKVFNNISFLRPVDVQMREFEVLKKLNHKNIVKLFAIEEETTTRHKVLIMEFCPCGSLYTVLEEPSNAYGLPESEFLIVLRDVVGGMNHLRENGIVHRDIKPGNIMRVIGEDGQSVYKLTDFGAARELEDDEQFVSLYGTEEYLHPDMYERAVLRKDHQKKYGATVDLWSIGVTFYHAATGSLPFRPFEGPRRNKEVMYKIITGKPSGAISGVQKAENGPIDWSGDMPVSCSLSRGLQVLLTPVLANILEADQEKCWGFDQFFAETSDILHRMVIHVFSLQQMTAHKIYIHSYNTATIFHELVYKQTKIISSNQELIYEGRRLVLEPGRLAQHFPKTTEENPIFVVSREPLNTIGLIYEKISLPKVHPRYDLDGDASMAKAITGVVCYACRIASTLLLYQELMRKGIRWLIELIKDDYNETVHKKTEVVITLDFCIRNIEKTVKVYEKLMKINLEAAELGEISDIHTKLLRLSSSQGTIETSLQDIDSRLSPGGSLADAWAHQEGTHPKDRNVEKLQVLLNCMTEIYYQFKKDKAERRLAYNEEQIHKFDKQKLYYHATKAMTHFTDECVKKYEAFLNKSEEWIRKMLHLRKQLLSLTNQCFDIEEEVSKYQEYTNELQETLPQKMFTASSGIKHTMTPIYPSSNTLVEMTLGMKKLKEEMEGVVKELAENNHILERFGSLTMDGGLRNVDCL
EPHA4 (human), sequence (P54764 whole entry, looked up): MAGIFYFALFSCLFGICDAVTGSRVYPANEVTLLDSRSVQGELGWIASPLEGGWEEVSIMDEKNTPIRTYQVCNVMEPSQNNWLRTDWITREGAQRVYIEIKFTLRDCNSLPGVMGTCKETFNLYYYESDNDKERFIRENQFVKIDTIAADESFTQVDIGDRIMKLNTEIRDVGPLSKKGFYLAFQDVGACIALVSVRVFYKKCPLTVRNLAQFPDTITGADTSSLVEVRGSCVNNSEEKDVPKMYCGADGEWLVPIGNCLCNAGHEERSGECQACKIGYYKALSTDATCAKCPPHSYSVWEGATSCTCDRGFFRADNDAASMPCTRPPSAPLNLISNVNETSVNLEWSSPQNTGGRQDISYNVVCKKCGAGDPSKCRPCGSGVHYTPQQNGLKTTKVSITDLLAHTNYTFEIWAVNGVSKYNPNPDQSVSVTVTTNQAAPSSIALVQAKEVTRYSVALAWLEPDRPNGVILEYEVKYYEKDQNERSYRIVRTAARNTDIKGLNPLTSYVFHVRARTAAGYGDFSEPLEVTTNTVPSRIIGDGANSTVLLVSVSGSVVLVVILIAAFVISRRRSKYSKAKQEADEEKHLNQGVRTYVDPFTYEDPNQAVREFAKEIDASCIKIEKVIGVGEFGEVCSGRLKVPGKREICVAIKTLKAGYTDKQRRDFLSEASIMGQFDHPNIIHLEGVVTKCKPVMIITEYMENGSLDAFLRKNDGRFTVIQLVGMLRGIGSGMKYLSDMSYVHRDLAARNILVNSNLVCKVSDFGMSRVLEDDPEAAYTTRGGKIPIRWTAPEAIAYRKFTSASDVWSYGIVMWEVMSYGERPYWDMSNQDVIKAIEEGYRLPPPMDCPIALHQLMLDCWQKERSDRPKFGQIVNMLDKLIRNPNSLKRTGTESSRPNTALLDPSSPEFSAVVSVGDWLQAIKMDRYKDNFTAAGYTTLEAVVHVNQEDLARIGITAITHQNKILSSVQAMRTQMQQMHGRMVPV
IRAK4 (human), sequence (Q9NWZ3 whole entry, looked up): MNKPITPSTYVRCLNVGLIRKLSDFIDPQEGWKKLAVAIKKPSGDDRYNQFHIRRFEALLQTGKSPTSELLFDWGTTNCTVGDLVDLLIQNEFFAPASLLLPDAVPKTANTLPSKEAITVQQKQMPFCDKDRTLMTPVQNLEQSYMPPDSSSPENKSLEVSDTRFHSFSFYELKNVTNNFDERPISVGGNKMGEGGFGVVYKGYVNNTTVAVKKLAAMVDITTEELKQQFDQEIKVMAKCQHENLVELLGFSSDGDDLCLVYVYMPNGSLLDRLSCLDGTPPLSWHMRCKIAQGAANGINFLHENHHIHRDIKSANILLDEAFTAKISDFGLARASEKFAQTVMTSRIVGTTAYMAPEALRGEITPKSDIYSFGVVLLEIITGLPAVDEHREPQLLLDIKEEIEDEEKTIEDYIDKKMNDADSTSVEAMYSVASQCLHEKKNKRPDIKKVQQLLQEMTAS
AURKA (human), sequence (O14965 whole entry, looked up): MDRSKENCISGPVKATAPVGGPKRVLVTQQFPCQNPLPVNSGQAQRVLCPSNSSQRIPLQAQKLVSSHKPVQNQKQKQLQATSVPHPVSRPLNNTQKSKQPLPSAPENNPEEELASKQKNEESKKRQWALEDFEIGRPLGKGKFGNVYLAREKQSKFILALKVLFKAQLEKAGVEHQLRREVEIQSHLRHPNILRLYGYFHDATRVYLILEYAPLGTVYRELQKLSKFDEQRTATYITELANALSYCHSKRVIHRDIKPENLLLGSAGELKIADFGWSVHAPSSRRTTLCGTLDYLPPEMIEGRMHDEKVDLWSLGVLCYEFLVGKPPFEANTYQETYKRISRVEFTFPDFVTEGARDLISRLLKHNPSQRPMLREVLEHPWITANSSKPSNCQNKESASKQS
MYLK (human), sequence (Q15746 whole entry, looked up): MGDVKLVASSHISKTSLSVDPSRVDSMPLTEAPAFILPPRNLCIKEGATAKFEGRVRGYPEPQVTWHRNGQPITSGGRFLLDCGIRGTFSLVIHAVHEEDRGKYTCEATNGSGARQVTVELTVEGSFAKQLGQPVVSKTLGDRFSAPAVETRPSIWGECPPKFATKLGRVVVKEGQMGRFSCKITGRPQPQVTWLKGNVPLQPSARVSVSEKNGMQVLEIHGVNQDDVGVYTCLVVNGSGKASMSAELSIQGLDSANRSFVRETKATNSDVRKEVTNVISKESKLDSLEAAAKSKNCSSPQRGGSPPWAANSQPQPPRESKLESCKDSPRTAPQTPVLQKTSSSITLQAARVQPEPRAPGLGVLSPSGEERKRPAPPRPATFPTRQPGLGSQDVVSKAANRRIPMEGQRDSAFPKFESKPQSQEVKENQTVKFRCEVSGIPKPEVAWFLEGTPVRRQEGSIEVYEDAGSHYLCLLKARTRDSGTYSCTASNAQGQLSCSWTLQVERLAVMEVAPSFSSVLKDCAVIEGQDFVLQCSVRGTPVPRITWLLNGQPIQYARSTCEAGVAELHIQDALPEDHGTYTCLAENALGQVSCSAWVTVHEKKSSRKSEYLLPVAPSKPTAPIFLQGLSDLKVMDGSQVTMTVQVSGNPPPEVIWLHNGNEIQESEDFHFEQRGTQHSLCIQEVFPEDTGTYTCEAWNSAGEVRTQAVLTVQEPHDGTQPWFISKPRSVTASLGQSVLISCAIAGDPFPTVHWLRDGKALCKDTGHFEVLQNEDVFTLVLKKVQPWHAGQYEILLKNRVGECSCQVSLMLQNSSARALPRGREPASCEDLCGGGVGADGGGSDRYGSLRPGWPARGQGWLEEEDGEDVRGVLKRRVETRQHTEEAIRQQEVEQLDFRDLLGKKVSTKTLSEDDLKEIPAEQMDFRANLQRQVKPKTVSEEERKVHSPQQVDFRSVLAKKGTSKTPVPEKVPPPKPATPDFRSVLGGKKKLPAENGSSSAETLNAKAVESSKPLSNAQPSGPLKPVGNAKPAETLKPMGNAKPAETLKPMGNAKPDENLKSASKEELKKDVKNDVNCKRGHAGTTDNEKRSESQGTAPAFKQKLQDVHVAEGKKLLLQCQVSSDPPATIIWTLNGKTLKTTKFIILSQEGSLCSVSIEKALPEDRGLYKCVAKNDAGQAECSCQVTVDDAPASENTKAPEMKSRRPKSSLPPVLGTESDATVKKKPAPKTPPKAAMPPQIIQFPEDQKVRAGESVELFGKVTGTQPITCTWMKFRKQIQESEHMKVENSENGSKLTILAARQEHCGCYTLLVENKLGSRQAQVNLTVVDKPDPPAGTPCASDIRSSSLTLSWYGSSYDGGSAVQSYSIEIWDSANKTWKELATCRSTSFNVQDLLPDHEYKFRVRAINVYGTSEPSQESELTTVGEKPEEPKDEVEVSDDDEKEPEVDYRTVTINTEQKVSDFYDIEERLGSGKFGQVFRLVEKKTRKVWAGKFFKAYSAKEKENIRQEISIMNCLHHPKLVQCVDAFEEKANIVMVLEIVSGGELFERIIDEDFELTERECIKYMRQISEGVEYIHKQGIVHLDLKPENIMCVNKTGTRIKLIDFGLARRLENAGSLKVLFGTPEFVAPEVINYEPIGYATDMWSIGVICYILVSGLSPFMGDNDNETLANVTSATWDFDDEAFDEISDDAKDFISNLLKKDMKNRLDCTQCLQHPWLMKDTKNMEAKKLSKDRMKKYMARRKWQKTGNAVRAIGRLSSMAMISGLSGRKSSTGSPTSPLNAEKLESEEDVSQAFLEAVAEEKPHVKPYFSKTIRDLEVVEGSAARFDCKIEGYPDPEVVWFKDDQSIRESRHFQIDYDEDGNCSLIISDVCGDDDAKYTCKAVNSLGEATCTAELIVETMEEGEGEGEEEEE
SGK1 (human), O00141 [S422D], sequence (O00141 whole entry S422D, looked up): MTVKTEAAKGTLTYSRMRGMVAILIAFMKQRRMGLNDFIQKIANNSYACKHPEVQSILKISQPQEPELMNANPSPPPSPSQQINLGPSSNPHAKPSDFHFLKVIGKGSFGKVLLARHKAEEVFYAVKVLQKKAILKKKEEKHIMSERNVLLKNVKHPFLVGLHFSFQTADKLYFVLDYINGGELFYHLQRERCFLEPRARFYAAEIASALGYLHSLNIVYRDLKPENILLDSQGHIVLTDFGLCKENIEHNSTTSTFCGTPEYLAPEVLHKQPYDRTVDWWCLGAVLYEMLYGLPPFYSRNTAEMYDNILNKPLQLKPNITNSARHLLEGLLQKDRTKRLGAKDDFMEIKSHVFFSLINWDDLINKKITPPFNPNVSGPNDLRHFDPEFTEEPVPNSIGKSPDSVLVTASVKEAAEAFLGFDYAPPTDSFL

SMILES: CC(C)(C#N)c1ccc(N2C(=O)OCc3cnc4ccc(-c5cnc6ccccc6c5)cc4c32)cc1
- residual activity (CDK2 CCNA2 (human); compound 1.0 µM): 90%
- residual activity (CDK2 CCNA2 (human); compound 10.0 µM): 85%
- residual activity (FLT1 (human); compound 1.0 µM): 87%
- residual activity (FLT1 (human); compound 10.0 µM): 107%
- residual activity (CSNK1D (human); compound 1.0 µM): 92%
- residual activity (CSNK1D (human); compound 10.0 µM): 95%
- residual activity (MAPKAPK3 (human); compound 1.0 µM): 88%
- residual activity (TBK1 (human); compound 1.0 µM): 83%
- residual activity (TBK1 (human); compound 10.0 µM): 96%
- residual activity (EPHB2 (human); compound 1.0 µM): 93%
- residual activity (EPHB2 (human); compound 10.0 µM): 95%
- residual activity ([1]; compound 1.0 µM): 95%
- residual activity ([1]; compound 10.0 µM): 107%
- residual activity (MELK (human); compound 1.0 µM): 49%
- residual activity (MELK (human); compound 10.0 µM): 49%
- residual activity ([2]; compound 1.0 µM): 96%
- residual activity ([2]; compound 10.0 µM): 82%
- residual activity (FGFR1 (human); compound 1.0 µM): 98%
- residual activity (FGFR1 (human); compound 10.0 µM): 93%
- residual activity (RPS6KA3 KD1 KD2 (human); compound 1.0 µM): 89%
- residual activity (RPS6KA3 KD1 KD2 (human); compound 10.0 µM): 100%
- residual activity (PLK1 (human); compound 1.0 µM): 93%
- residual activity (PLK1 (human); compound 10.0 µM): 87%
- residual activity (PIM3 (human); compound 1.0 µM): 67%
- residual activity (PIM3 (human); compound 10.0 µM): 55%
- residual activity (SYK (human); compound 1.0 µM): 105%
- residual activity (SYK (human); compound 10.0 µM): 76%
- residual activity (MYLK (human); compound 1.0 µM): 87%
- residual activity (MYLK (human); compound 10.0 µM): 100%
- residual activity (MARK4 (human); compound 1.0 µM): 100%
- residual activity (MARK4 (human); compound 10.0 µM): 86%
- residual activity (AURKA (human); compound 1.0 µM): 101%
- residual activity (AURKA (human); compound 10.0 µM): 108%
- residual activity (MAP3K11 (human); compound 1.0 µM): 81%
- residual activity (MAP3K11 (human); compound 10.0 µM): 83%
- residual activity (JAK2 JH1 JH2 (human); compound 1.0 µM): 26%
- residual activity (JAK2 JH1 JH2 (human); compound 10.0 µM): 31%
- residual activity (IRAK4 (human); compound 1.0 µM): 90%
- residual activity (IRAK4 (human); compound 10.0 µM): 89%
- residual activity (INSRR (human); compound 1.0 µM): 74%
- residual activity (INSRR (human); compound 10.0 µM): 77%
- residual activity (MAPK8 (human); compound 1.0 µM): 106%
- residual activity (MAPK8 (human); compound 10.0 µM): 109%
- residual activity (TTK (human); compound 1.0 µM): 91%
- residual activity (TTK (human); compound 10.0 µM): 86%
- residual activity (INSR (human); compound 1.0 µM): 96%
- residual activity (INSR (human); compound 10.0 µM): 96%
- residual activity (EPHA4 (human); compound 1.0 µM): 89%
- residual activity (EPHA4 (human); compound 10.0 µM): 89%
- residual activity (MAPK12 (human); compound 1.0 µM): 88%
- residual activity (MAPK12 (human); compound 10.0 µM): 100%
- residual activity (BRSK2 (human); compound 1.0 µM): 89%
- residual activity (BRSK2 (human); compound 10.0 µM): 100%
- residual activity ([3]; compound 1.0 µM): 91%
- residual activity ([3]; compound 10.0 µM): 96%
- residual activity (CLK2 (human); compound 1.0 µM): 75%
- residual activity (CLK2 (human); compound 10.0 µM): 91%
- residual activity (RIPK2 (human); compound 1.0 µM): 57%
- residual activity (RIPK2 (human); compound 10.0 µM): 38%
- residual activity (CSK (human); compound 1.0 µM): 75%
- residual activity (CSK (human); compound 10.0 µM): 89%
- residual activity (PIM1 (human); compound 1.0 µM): 81%
- residual activity (PIM1 (human); compound 10.0 µM): 73%
- residual activity (BRSK1 (human); compound 1.0 µM): 97%
- residual activity (BRSK1 (human); compound 10.0 µM): 86%
- residual activity (MAP2K2 (human); compound 1.0 µM): 87%
- residual activity (MAP2K2 (human); compound 10.0 µM): 75%
- residual activity (MAP3K7 TAB1 (human); compound 1.0 µM): 64%
- residual activity (MAP3K7 TAB1 (human); compound 10.0 µM): 78%

SMILES: CCNc1nc(Nc2cc(F)c(C(=O)N3CCOCC3)cc2OC)ncc1C(F)(F)F
- residual activity (CDK2 CCNA2 (human); compound 1.0 µM): 102%
- residual activity (CDK2 CCNA2 (human); compound 10.0 µM): 79%
- residual activity (FLT1 (human); compound 1.0 µM): 62%
- residual activity (FLT1 (human); compound 10.0 µM): 13%
- residual activity (CSNK1D (human); compound 1.0 µM): 98%
- residual activity (CSNK1D (human); compound 10.0 µM): 81%
- residual activity (MAPKAPK3 (human); compound 1.0 µM): 91%
- residual activity (MAPKAPK3 (human); compound 10.0 µM): 108%
- residual activity (TBK1 (human); compound 1.0 µM): 62%
- residual activity (TBK1 (human); compound 10.0 µM): 17%
- residual activity (EPHB2 (human); compound 1.0 µM): 110%
- residual activity (EPHB2 (human); compound 10.0 µM): 100%
- residual activity ([1]; compound 1.0 µM): 86%
- residual activity ([1]; compound 10.0 µM): 86%
- residual activity (MELK (human); compound 1.0 µM): 90%
- residual activity (MELK (human); compound 10.0 µM): 43%
- residual activity ([2]; compound 1.0 µM): 72%
- residual activity ([2]; compound 10.0 µM): 59%
- residual activity (FGFR1 (human); compound 1.0 µM): 118%
- residual activity (FGFR1 (human); compound 10.0 µM): 95%
- residual activity (RPS6KA3 KD1 KD2 (human); compound 1.0 µM): 34%
- residual activity (RPS6KA3 KD1 KD2 (human); compound 10.0 µM): 9%
- residual activity (PLK1 (human); compound 1.0 µM): 76%
- residual activity (PLK1 (human); compound 10.0 µM): 39%
- residual activity (PIM3 (human); compound 1.0 µM): 105%
- residual activity (PIM3 (human); compound 10.0 µM): 76%
- residual activity (SYK (human); compound 1.0 µM): 70%
- residual activity (SYK (human); compound 10.0 µM): 33%
- residual activity (MYLK (human); compound 1.0 µM): 31%
- residual activity (MYLK (human); compound 10.0 µM): 6%
- residual activity (MARK4 (human); compound 1.0 µM): 91%
- residual activity (MARK4 (human); compound 10.0 µM): 67%
- residual activity (AURKA (human); compound 1.0 µM): 97%
- residual activity (AURKA (human); compound 10.0 µM): 55%
- residual activity (MAP3K11 (human); compound 1.0 µM): 23%
- residual activity (MAP3K11 (human); compound 10.0 µM): 5%
- residual activity (JAK2 JH1 JH2 (human); compound 1.0 µM): 72%
- residual activity (JAK2 JH1 JH2 (human); compound 10.0 µM): 35%
- residual activity (IRAK4 (human); compound 1.0 µM): 103%
- residual activity (IRAK4 (human); compound 10.0 µM): 83%
- residual activity (INSRR (human); compound 1.0 µM): 90%
- residual activity (INSRR (human); compound 10.0 µM): 67%
- residual activity (MAPK8 (human); compound 1.0 µM): 87%
- residual activity (MAPK8 (human); compound 10.0 µM): 50%
- residual activity (TTK (human); compound 1.0 µM): 52%
- residual activity (TTK (human); compound 10.0 µM): 32%
- residual activity (INSR (human); compound 1.0 µM): 19%
- residual activity (INSR (human); compound 10.0 µM): 2%
- residual activity (EPHA4 (human); compound 1.0 µM): 97%
- residual activity (EPHA4 (human); compound 10.0 µM): 76%
- residual activity (MAPK12 (human); compound 1.0 µM): 99%
- residual activity (MAPK12 (human); compound 10.0 µM): 102%
- residual activity (BRSK2 (human); compound 1.0 µM): 80%
- residual activity (BRSK2 (human); compound 10.0 µM): 38%
- residual activity ([3]; compound 1.0 µM): 89%
- residual activity ([3]; compound 10.0 µM): 60%
- residual activity (CLK2 (human); compound 1.0 µM): 50%
- residual activity (CLK2 (human); compound 10.0 µM): 9%
- residual activity (RIPK2 (human); compound 1.0 µM): 86%
- residual activity (RIPK2 (human); compound 10.0 µM): 74%
- residual activity (CSK (human); compound 1.0 µM): 101%
- residual activity (CSK (human); compound 10.0 µM): 94%
- residual activity (PIM1 (human); compound 1.0 µM): 94%
- residual activity (PIM1 (human); compound 10.0 µM): 99%
- residual activity (BRSK1 (human); compound 1.0 µM): 82%
- residual activity (BRSK1 (human); compound 10.0 µM): 50%
- residual activity (MAP2K2 (human); compound 1.0 µM): 93%
- residual activity (MAP2K2 (human); compound 10.0 µM): 90%
- residual activity (MAP3K7 TAB1 (human); compound 1.0 µM): 17%
- residual activity (MAP3K7 TAB1 (human); compound 10.0 µM): 2%
